From patent US11589603B2, “Powdered nutritional product containing branched-chain amino acids and a sugar alcohol” (Abbott Laboratories, priority 2015, dated 2023)

How the values were obtained:
Assay type in all cases: physicochemical
[1] = Example 4: aqueous dissolution of branched-chain amino acids in a powdered nutritional product with varying myo-inositol, LC/UV of filtrate; settings: 17.6 g powdered nutritional product, water 21° C., 400 rpm
Description: (§1) The LC/UV system used to perform the tests comprised the following: 1) Column: YMC ODS-AQ, 4.6 x 250 mm, 5 μm, Waters P/N AQ12S052546WT; 2) Mobile Phase: Milli-Q Plus water; 3) Flow Rate: 0.4 mL/minute; 4) Temperature: 40° C.; 5) Detection: UV at 192 nm; 6) Injection: 2 μL of filtrate; and 7) Run Time: 20 minutes.
Example 4 evaluates the effect that myo-inositol concentration has on the aqueous dissolution of branched-chain amino acids (valine, isoleucine, and leucine) in a powdered nutritional product. One serving (17.6 grams) of the powdered nutritional product contains 7.00 grams of a branched-chain amino acid blend comprising 50 wt. % leucine, 25 wt. % isoleucine, and 25 wt. % valine. A serving of the powdered nutritional product with a specified amount of myo-inositol was added to 16 fluid ounces of Milli-Q Plus water at 21° C. and stirred at 400 rpm. At each specified time point, an aliquot was obtained and filtered through a 0.45 μm PTFE membrane (Pall Life Sciences, Acrodisc CR 25, P/N 4501), and the filtrate was tested for valine, isoleucine, and leucine using the LC/UV method as described in Example 3.

[2] = Example 3: aqueous dissolution of powdered branched-chain amino acid blend (first material) with varying myo-inositol, LC/UV of filtrate; settings: for Dissolved amino acid (g per 16 oz.): 7.00 g BCAA blend, water 21° C., 400 rpm
Description: Example 3 evaluates the effect that varying the myo-inositol concentration has on the aqueous dissolution of branched-chain amino acids. Two branched-chain amino acid materials were tested. The first material tested was 7.00 grams of a powdered branched-chain amino acid blend comprising 50 wt. % leucine, 25 wt. % isoleucine, and 25 wt. % valine. The second material tested was 3.5 grams of powdered leucine. Each material was tested with varying levels of powdered myo-inositol, expressed as a percentage of 17.6 grams (e.g., a serving of powdered nutritional product). For example, 1% myo-inositol is 0.176 grams, 2% myo-inositol is 0.352 grams, and so forth. The branched-chain amino acid material and the specified amount of myo-inositol were added to 16 fluid ounces of Milli-Q Plus water at 21° C. and stirred at 400 rpm. After 30 seconds and 60 seconds of stirring, an aliquot was obtained and filtered through a 0.45 μm PTFE membrane (Pall Life Sciences, Acrodisc CR 25, P/N 4501), and the filtrate of the first material was tested for valine, isoleucine, and leucine using the LC/UV method described below, while the filtrate of the second material was tested for leucine using the same LC/UV method. The test results for the first material tested are shown in Table 3, while the test results for the second material tested are shown in Table 4.
as §1

[3] = Example 5: effect of inositol isomers on dissolution of L-leucine, LC/UV of filtrate; settings: for Leu dissolved at 30 seconds (g/16 oz.) / Leu dissolved at 60 seconds (% of total Leu) / Leu dissolved at 60 seconds (g/16 oz.): 3.50 g L-leucine with 0.1 g/16 oz. inositol isomer, water 21° C., 400 rpm; for enhancement of dissolution rate of L-leucine by inositol isomer: 0.1 g isomer, 3.50 g L-leucine
Description: as §1, with “[…];” for “P/N AQ12S052546WT;”

[4] = myo-inositol 0% of 17.6 g, 30 seconds
[5] = myo-inositol 0% of 17.6 g, 60 seconds
[6] = myo-inositol 1% of 17.6 g, 30 seconds
[7] = myo-inositol 1% of 17.6 g, 60 seconds
[8] = myo-inositol 2% of 17.6 g, 30 seconds
[9] = myo-inositol 2% of 17.6 g, 60 seconds
[10] = myo-inositol 4% of 17.6 g, 30 seconds
[11] = myo-inositol 4% of 17.6 g, 60 seconds
[12] = myo-inositol 8% of 17.6 g, 30 seconds
[13] = myo-inositol 8% of 17.6 g, 60 seconds

CC[C@H](C)[C@H](N)C(=O)O [Isoleucine, L-Isoleucine]
Dissolved amino acid (g per 16 oz.) ([1]; myo-inositol 0%, 30 seconds): 0.978 g per 16 oz. | Dissolved amino acid (g per 16 oz.) ([1]; myo-inositol 0%, 60 seconds): 1.36 g per 16 oz. | Dissolved amino acid (g per 16 oz.) ([1]; myo-inositol 0%, 90 seconds): 1.50 g per 16 oz. | Dissolved amino acid (g per 16 oz.) ([1]; myo-inositol 0%, 240 seconds): 1.71 g per 16 oz. | Dissolved amino acid (g per 16 oz.) ([1]; myo-inositol 0%, 600 seconds): 1.74 g per 16 oz. | Dissolved amino acid (g per 16 oz.) ([1]; myo-inositol 1%, 30 seconds): 1.09 g per 16 oz. | Dissolved amino acid (g per 16 oz.) ([1]; myo-inositol 1%, 60 seconds): 1.39 g per 16 oz. | Dissolved amino acid (g per 16 oz.) ([1]; myo-inositol 1%, 90 seconds): 1.51 g per 16 oz. | Dissolved amino acid (g per 16 oz.) ([1]; myo-inositol 1%, 240 seconds): 1.71 g per 16 oz. | Dissolved amino acid (g per 16 oz.) ([1]; myo-inositol 1%, 600 seconds): 1.71 g per 16 oz. | Dissolved amino acid (g per 16 oz.) ([1]; myo-inositol 2%, 30 seconds): 1.07 g per 16 oz. | Dissolved amino acid (g per 16 oz.) ([1]; myo-inositol 2%, 60 seconds): 1.33 g per 16 oz. | Dissolved amino acid (g per 16 oz.) ([1]; myo-inositol 2%, 90 seconds): 1.46 g per 16 oz. | Dissolved amino acid (g per 16 oz.) ([1]; myo-inositol 2%, 240 seconds): 1.66 g per 16 oz. | Dissolved amino acid (g per 16 oz.) ([1]; myo-inositol 2%, 600 seconds): 1.70 g per 16 oz. | Dissolved amino acid (g per 16 oz.) ([1]; myo-inositol 4%, 30 seconds): 1.14 g per 16 oz. | Dissolved amino acid (g per 16 oz.) ([1]; myo-inositol 4%, 60 seconds): 1.39 g per 16 oz. | Dissolved amino acid (g per 16 oz.) ([1]; myo-inositol 4%, 90 seconds): 1.52 g per 16 oz. | Dissolved amino acid (g per 16 oz.) ([1]; myo-inositol 4%, 240 seconds): 1.70 g per 16 oz. | Dissolved amino acid (g per 16 oz.) ([1]; myo-inositol 4%, 600 seconds): 1.72 g per 16 oz. | Dissolved amino acid (g per 16 oz.) ([1]; myo-inositol 8%, 30 seconds): 1.09 g per 16 oz. | Dissolved amino acid (g per 16 oz.) ([1]; myo-inositol 8%, 60 seconds): 1.38 g per 16 oz. | Dissolved amino acid (g per 16 oz.) ([1]; myo-inositol 8%, 90 seconds): 1.48 g per 16 oz. | Dissolved amino acid (g per 16 oz.) ([1]; myo-inositol 8%, 240 seconds): 1.72 g per 16 oz. | Dissolved amino acid (g per 16 oz.) ([1]; myo-inositol 8%, 600 seconds): 1.74 g per 16 oz. | Dissolved amino acid (g per 16 oz.) [2, 4]: 0.237 g per 16 oz. | Dissolved amino acid (g per 16 oz.) [2, 5]: 0.495 g per 16 oz. | Dissolved amino acid (g per 16 oz.) [2, 6]: 0.504 g per 16 oz. | Dissolved amino acid (g per 16 oz.) [2, 7]: 0.908 g per 16 oz. | Dissolved amino acid (g per 16 oz.) [2, 8]: 0.337 g per 16 oz. | Dissolved amino acid (g per 16 oz.) [2, 9]: 0.714 g per 16 oz. | Dissolved amino acid (g per 16 oz.) [2, 10]: 0.416 g per 16 oz. | Dissolved amino acid (g per 16 oz.) [2, 11]: 0.791 g per 16 oz. | Dissolved amino acid (g per 16 oz.) [2, 12]: 0.546 g per 16 oz. | Dissolved amino acid (g per 16 oz.) [2, 13]: 0.972 g per 16 oz.

OC1C(O)C(O)C(O)C(O)C1O [L-chiro-inositol]
Leu dissolved at 30 seconds (g/16 oz.) [3]: 0.472 g/16 oz. | Leu dissolved at 60 seconds (% of total Leu) [3]: 24.2 % of total Leu | Leu dissolved at 60 seconds (g/16 oz.) [3]: 0.848 g/16 oz.

CC(C)[C@H](N)C(=O)O [Valine, L-Valine]
Dissolved amino acid (g per 16 oz.) ([1]; myo-inositol 0%, 30 seconds): 1.30 g per 16 oz. | Dissolved amino acid (g per 16 oz.) ([1]; myo-inositol 0%, 60 seconds): 1.54 g per 16 oz. | Dissolved amino acid (g per 16 oz.) ([1]; myo-inositol 0%, 90 seconds): 1.62 g per 16 oz. | Dissolved amino acid (g per 16 oz.) ([1]; myo-inositol 0%, 240 seconds): 1.69 g per 16 oz. | Dissolved amino acid (g per 16 oz.) ([1]; myo-inositol 0%, 600 seconds): 1.70 g per 16 oz. | Dissolved amino acid (g per 16 oz.) ([1]; myo-inositol 1%, 30 seconds): 1.39 g per 16 oz. | Dissolved amino acid (g per 16 oz.) ([1]; myo-inositol 1%, 60 seconds): 1.59 g per 16 oz. | Dissolved amino acid (g per 16 oz.) ([1]; myo-inositol 1%, 90 seconds): 1.65 g per 16 oz. | Dissolved amino acid (g per 16 oz.) ([1]; myo-inositol 1%, 240 seconds): 1.72 g per 16 oz. | Dissolved amino acid (g per 16 oz.) ([1]; myo-inositol 1%, 600 seconds): 1.72 g per 16 oz. | Dissolved amino acid (g per 16 oz.) ([1]; myo-inositol 2%, 30 seconds): 1.38 g per 16 oz. | Dissolved amino acid (g per 16 oz.) ([1]; myo-inositol 2%, 60 seconds): 1.55 g per 16 oz. | Dissolved amino acid (g per 16 oz.) ([1]; myo-inositol 2%, 90 seconds): 1.63 g per 16 oz. | Dissolved amino acid (g per 16 oz.) ([1]; myo-inositol 2%, 240 seconds): 1.70 g per 16 oz. | Dissolved amino acid (g per 16 oz.) ([1]; myo-inositol 2%, 600 seconds): 1.70 g per 16 oz. | Dissolved amino acid (g per 16 oz.) ([1]; myo-inositol 4%, 30 seconds): 1.44 g per 16 oz. | Dissolved amino acid (g per 16 oz.) ([1]; myo-inositol 4%, 60 seconds): 1.57 g per 16 oz. | Dissolved amino acid (g per 16 oz.) ([1]; myo-inositol 4%, 90 seconds): 1.64 g per 16 oz. | Dissolved amino acid (g per 16 oz.) ([1]; myo-inositol 4%, 240 seconds): 1.70 g per 16 oz. | Dissolved amino acid (g per 16 oz.) ([1]; myo-inositol 4%, 600 seconds): 1.70 g per 16 oz. | Dissolved amino acid (g per 16 oz.) ([1]; myo-inositol 8%, 30 seconds): 1.36 g per 16 oz. | Dissolved amino acid (g per 16 oz.) ([1]; myo-inositol 8%, 60 seconds): 1.56 g per 16 oz. | Dissolved amino acid (g per 16 oz.) ([1]; myo-inositol 8%, 90 seconds): 1.62 g per 16 oz. | Dissolved amino acid (g per 16 oz.) ([1]; myo-inositol 8%, 240 seconds): 1.69 g per 16 oz. | Dissolved amino acid (g per 16 oz.) ([1]; myo-inositol 8%, 600 seconds): 1.69 g per 16 oz. | Dissolved amino acid (g per 16 oz.) [2, 4]: 0.401 g per 16 oz. | Dissolved amino acid (g per 16 oz.) [2, 5]: 0.730 g per 16 oz. | Dissolved amino acid (g per 16 oz.) [2, 6]: 0.432 g per 16 oz. | Dissolved amino acid (g per 16 oz.) [2, 7]: 0.690 g per 16 oz. | Dissolved amino acid (g per 16 oz.) [2, 8]: 0.550 g per 16 oz. | Dissolved amino acid (g per 16 oz.) [2, 9]: 1.01 g per 16 oz. | Dissolved amino acid (g per 16 oz.) [2, 10]: 0.564 g per 16 oz. | Dissolved amino acid (g per 16 oz.) [2, 11]: 0.924 g per 16 oz. | Dissolved amino acid (g per 16 oz.) [2, 12]: 0.797 g per 16 oz. | Dissolved amino acid (g per 16 oz.) [2, 13]: 1.29 g per 16 oz. | valine/myo-inositol correlation on a molar basis, slope of plot (FIG. 2) ([2]; first material, 30 second time point): one valine molecule dissolves for every two molecules of myo-inositol added

OC1C(O)C(O)C(O)C(O)C1O (centres unmarked) [allo-inositol]
enhancement of dissolution rate of L-leucine by inositol isomer [3]: most enhanced | Leu dissolved at 30 seconds (g/16 oz.) [3]: 0.792 g/16 oz. | Leu dissolved at 60 seconds (% of total Leu) [3]: 40.4 % of total Leu | Leu dissolved at 60 seconds (g/16 oz.) [3]: 1.41 g/16 oz.

OC1C(O)C(O)C(O)C(O)C1O (stereo not drawn) [cis-inositol]
enhancement of dissolution rate of L-leucine by inositol isomer [3]: most enhanced | Leu dissolved at 30 seconds (g/16 oz.) [3]: 0.649 g/16 oz. | Leu dissolved at 60 seconds (% of total Leu) [3]: 36.3 % of total Leu | Leu dissolved at 60 seconds (g/16 oz.) [3]: 1.27 g/16 oz.

OC1C(O)C(O)C(O)C(O)C1O (stereo not drawn) [epi-inositol]
enhancement of dissolution rate of L-leucine by inositol isomer [3]: most enhanced | Leu dissolved at 30 seconds (g/16 oz.) [3]: 0.626 ± 0.223 g/16 oz. | Leu dissolved at 60 seconds (% of total Leu) [3]: 33.2 ± 10.6 % of total Leu | Leu dissolved at 60 seconds (g/16 oz.) [3]: 1.16 ± 0.37 g/16 oz.

OC1C(O)C(O)C(O)C(O)C1O (centres unmarked) [muco-inositol]
Leu dissolved at 30 seconds (g/16 oz.) [3]: 0.379 g/16 oz. | Leu dissolved at 60 seconds (% of total Leu) [3]: 21.5 % of total Leu | Leu dissolved at 60 seconds (g/16 oz.) [3]: 0.751 g/16 oz.

O[C@H]1[C@H](O)[C@@H](O)[C@H](O)[C@@H](O)[C@@H]1O [scyllo-inositol]
Leu dissolved at 30 seconds (g/16 oz.) [3]: 0.450 g/16 oz. | Leu dissolved at 60 seconds (% of total Leu) [3]: 24.0 % of total Leu | Leu dissolved at 60 seconds (g/16 oz.) [3]: 0.841 g/16 oz.
